Experimental data taken from patent publication US6346261B1, “Pesticidal composition” (priority 1997, dated 2002).

Test system: eggs of cat flea
Experiment: Hatching inhibition of cat flea eggs on treated filter paper (Test Example 1)
Type: in vivo, cat flea (Ctenocephalides felis)
Conditions: 26° C., 95% humidity, 5 days, corrected against non-treated hatching ratio 92.4%
Protocol: Each of pyriproxyfen, 1S,3S,4S,6R-carane-3,4-diol and a mixture thereof was diluted with acetone, added dropwise to a filter paper (3.8 cm in diameter) and dried. About 20 eggs (within 24 hours after laid) of cat flea were set on the filter paper prepared above. The filter paper was held in a plastic plate, kept 26° C. of temperature and 95% of humidity for 5 days and hatching was observed.
Hatching inhibition ratio (%) in Table represents a corrected inhibition ratio (%) which is calculated by the following:
Hatching inhibition ratio (%)={(C−T)/C}×100
wherein C is a hatching ratio (92.4%) of flea at non-treated area and T is a hatching ratio of flea at treated area.
In the table, PY means pyriproxyfen and CA means 1S,3S,4S,6R-carane-3,4-diol. The treated dosage unit is mg/m^2.

| SMILES | Hatching inhibition ratio (%) (treated dosage 10 mg/m^2 on filter paper) | Hatching inhibition ratio (%) (treated dosage 100 mg/m^2 on filter paper) | Hatching inhibition ratio (%) (treated dosage 0.1 mg/m^2 on filter paper) |
| --- | --- | --- | --- |
| CC1(C)[C@@H]2C[C@H](O)[C@@](C)(O)C[C@@H]21 [CA, 1S,3S,4S,6R-carane-3,4-diol] | 3.1 | 12.1 |  |
| CC(COc1ccc(Oc2ccccc2)cc1)Oc1ccccn1 (stereo not drawn) [PY, pyriproxyfen] |  |  | 58.1 |
